Experimental data: ChEMBL document CHEMBL1201862, “PubChem BioAssay data set” (2004)
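Dose response: 5 concentrations. Exposure: 48 h. Format: 96-well plates. Endpoint: linear interpolation; highest concentration if not reached. Abbreviation: GI50, concentration required for 50% inhibition of growth.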 Calls of active or inactive are those of the source. No stated cut-off is given here; in the data, active = GI50 up to about 1.1 µM and inactive = higher.

Columns and labels:
Assay in all cases: growth of human tumour cells (NCI), 48 h
SK-MEL-5 = tested on: SK-MEL-5
SK-MEL-28 = tested on: SK-MEL-28
EKVX = tested on: EKVX
LOX IMVI = tested on: LOX IMVI
HOP-62 = tested on: HOP-62
HCT-116 = tested on: HCT-116
CAKI-1 = tested on: CAKI-1
K562 = tested on: K562
RXF 393 = tested on: RXF 393
HL-60 = tested on: HL-60
OVCAR-8 = tested on: OVCAR-8
OVCAR-3 = tested on: OVCAR-3
ACHN = tested on: ACHN
NCI-H23 = tested on: NCI-H23
SF-295 = tested on: SF-295
A498 = tested on: A498

| Structure (SMILES) | GI50 (SK-MEL-5) | GI50 (SK-MEL-28) | GI50 (EKVX) | GI50 (LOX IMVI) | GI50 (HOP-62) | GI50 (HCT-116) | GI50 (CAKI-1) | GI50 (K562) | GI50 (RXF 393) | GI50 (HL-60) | GI50 (OVCAR-8) | GI50 (OVCAR-3) | GI50 (ACHN) | GI50 (NCI-H23) | GI50 (SF-295) | GI50 (A498) |
| --- | --- | --- | --- | --- | --- | --- | --- | --- | --- | --- | --- | --- | --- | --- | --- | --- |
| Cc1ccc(C(=O)/C=C2\Nc3c(c(=O)oc4ccccc34)N=C2NC23CC4CC(CC(C4)C2)C3)cc1 | > 100 µM (inactive) | > 100 µM (inactive) | > 100 µM (inactive) | > 100 µM (inactive) | > 100 µM (inactive) | > 100 µM (inactive) | > 100 µM (inactive) | > 100 µM (inactive) | > 100 µM (inactive) | > 100 µM (inactive) | > 100 µM (inactive) | > 100 µM (inactive) | > 100 µM (inactive) | > 100 µM (inactive) | – | – |
| CC1(C)C(=O)N(CCCCCCN2C(=O)C(C)(C)c3ccccc32)c2ccccc21 | 18.6 µM (inactive) | 47.2 µM (inactive) | 38.1 µM (inactive) | 22 µM (inactive) | 80.7 µM (inactive) | 21 µM (inactive) | 62.4 µM (inactive) | 22.6 µM (inactive) | – | 2.04 µM (inactive) | 51.3 µM (inactive) | 28 µM (inactive) | 25.6 µM (inactive) | 42.6 µM (inactive) | 44.1 µM (inactive) | > 100 µM (inactive) |
| Nc1ccc(C(=O)NN2C(=O)C(Cl)C2c2ccc(O)cc2)cc1 (centres undefined) | 17.2 µM (inactive) | 22.1 µM (inactive) | 16.6 µM (inactive) | 9.27 µM (inactive) | 21.7 µM (inactive) | 19.2 µM (inactive) | 25.1 µM (inactive) | 21.3 µM (inactive) | – | 15.6 µM (inactive) | 26.5 µM (inactive) | 15 µM (inactive) | 35.2 µM (inactive) | 17.9 µM (inactive) | 33 µM (inactive) | 36 µM (inactive) |
| Cc1c(C(=O)O)oc2ccc([N+](=O)[O-])cc12 | > 100 µM (inactive) | > 100 µM (inactive) | > 100 µM (inactive) | > 100 µM (inactive) | > 100 µM (inactive) | > 100 µM (inactive) | > 100 µM (inactive) | > 100 µM (inactive) | – | > 100 µM (inactive) | > 100 µM (inactive) | > 100 µM (inactive) | > 100 µM (inactive) | > 100 µM (inactive) | > 100 µM (inactive) | > 100 µM (inactive) |
| C1=C2/CC[C@H](Sc3ccccc3)[C@H]2C2(CCCCC/1)OCCO2 | 29.6 µM (inactive) | > 100 µM (inactive) | 18.5 µM (inactive) | 18.7 µM (inactive) | 40.4 µM (inactive) | 39.8 µM (inactive) | 20.2 µM (inactive) | 32.1 µM (inactive) | – | 22.2 µM (inactive) | 26.7 µM (inactive) | 27.7 µM (inactive) | 35.6 µM (inactive) | 34.8 µM (inactive) | 37.8 µM (inactive) | – |
| COC(=O)N1C=CC2=C(C)C3Nc4ccccc4C3C(C)=C2C1 (centres undefined) | 3.15 µM (inactive) | 7.29 µM (inactive) | 1.25 µM (inactive) | 2.23 µM (inactive) | 1.73 µM (inactive) | 0.643 µM (active) | 5.35 µM (inactive) | 2.09 µM (inactive) | – | 1.98 µM (inactive) | 0.682 µM (active) | 0.923 µM (active) | 0.521 µM (active) | 4.54 µM (inactive) | 1.64 µM (inactive) | 16.2 µM (inactive) |
| CC(=O)c1ccc(NC(=O)/C(CC(=O)c2sc(-c3cccnc3)nc2C)=N/NC(N)=O)cc1 | > 100 µM (inactive) | > 100 µM (inactive) | 2.71 µM (inactive) | > 100 µM (inactive) | > 10 µM (inactive) | 22.6 µM (inactive) | 23.2 µM (inactive) | > 100 µM (inactive) | – | 29.5 µM (inactive) | 56.5 µM (inactive) | > 100 µM (inactive) | 22.4 µM (inactive) | > 10 µM (inactive) | 41.7 µM (inactive) | 31.5 µM (inactive) |
| Cc1cccc(NC(=O)CC(=O)N2N=C(N(CCC#N)c3ccc(Cl)cc3)CC2c2ccccc2)c1 (centres undefined) | > 100 µM (inactive) | > 100 µM (inactive) | – | > 100 µM (inactive) | > 100 µM (inactive) | > 100 µM (inactive) | > 100 µM (inactive) | > 100 µM (inactive) | > 100 µM (inactive) | > 100 µM (inactive) | > 100 µM (inactive) | > 100 µM (inactive) | > 100 µM (inactive) | > 100 µM (inactive) | > 100 µM (inactive) | – |
| O=c1c2c([nH]c3cc4c(cc13)OCO4)-c1ccccc1C2 | 16 µM (inactive) | 22.6 µM (inactive) | 29.6 µM (inactive) | 15.6 µM (inactive) | 23.4 µM (inactive) | 15.6 µM (inactive) | 39 µM (inactive) | 27.2 µM (inactive) | 16.4 µM (inactive) | 27.7 µM (inactive) | 29.8 µM (inactive) | 22.5 µM (inactive) | 19.4 µM (inactive) | 26.1 µM (inactive) | 26.9 µM (inactive) | – |
| COc1ccc2c(c1)[n+]([O-])c(C(=O)CC(=O)C(=O)Nc1cccc(C)c1C)c(C)[n+]2[O-] | > 100 µM (inactive) | > 100 µM (inactive) | > 100 µM (inactive) | > 100 µM (inactive) | > 100 µM (inactive) | > 100 µM (inactive) | > 100 µM (inactive) | > 100 µM (inactive) | > 100 µM (inactive) | > 100 µM (inactive) | > 100 µM (inactive) | > 100 µM (inactive) | > 100 µM (inactive) | > 100 µM (inactive) | > 100 µM (inactive) | – |
| Brc1cc2c(cc1C1SCCS1)OCO2 | > 100 µM (inactive) | > 100 µM (inactive) | > 100 µM (inactive) | 81.7 µM (inactive) | > 100 µM (inactive) | > 100 µM (inactive) | > 100 µM (inactive) | 59.2 µM (inactive) | – | 96.4 µM (inactive) | > 100 µM (inactive) | > 100 µM (inactive) | > 100 µM (inactive) | > 100 µM (inactive) | > 100 µM (inactive) | > 100 µM (inactive) |
| CCOc1ccccc1NC(=O)CC1SC(Nc2ccc([N+](=O)[O-])cc2)=NC1=O (centres undefined) | 16 µM (inactive) | 25.3 µM (inactive) | 27.5 µM (inactive) | 18.5 µM (inactive) | 18.5 µM (inactive) | 15.3 µM (inactive) | – | – | 18.1 µM (inactive) | 32.6 µM (inactive) | 21.5 µM (inactive) | 14.5 µM (inactive) | 17.3 µM (inactive) | 16.6 µM (inactive) | 18 µM (inactive) | – |
| CCOC(=O)C(=O)Nc1ccccc1C(C)C | > 100 µM (inactive) | > 100 µM (inactive) | > 100 µM (inactive) | – | > 100 µM (inactive) | > 100 µM (inactive) | > 100 µM (inactive) | > 100 µM (inactive) | – | > 100 µM (inactive) | > 100 µM (inactive) | > 100 µM (inactive) | > 100 µM (inactive) | > 100 µM (inactive) | > 100 µM (inactive) | > 100 µM (inactive) |
